By IC50 is commonly meant the point on the concentration scale where inhibition reaches its midpoint.

Where only a bound is given, the exact number is not on record here.

Assay [1] concerns pS6K1 (p-p70 S6 Kinase (Thr389)) in MCF-7 cells. Description: AlphaLISA Ultra pS6K1 assay. The format is cell-based. The settings on record: Homo sapiens, MCF7, 2 h, 2 hours compound incubation. As for the experimental part: Example 155: AlphaLISA Ultra pS6K1 assay
(§1) Assay Protocol: • 1. Seed MCF-7 cells in Corning 3701 plate and incubate for 20˜24 hour. 12,000˜16,000 cells will be seeded in 36 μL medium per well. • 2. Change the culture medium with fresh medium and incubate for another 2 hours. • 3. Add 12 μL (4×) compounds into the cell plate by HAMILTON. Final DMSO concentration is 0.5%. Incubate for 2 hours. • 4. Aspirate 38 μL by HAMILTON, 10 μL rest per well. • 5. Add 10 μL 2× lysis buffer using HAMILTON; total volume in wells is 20 μL. Allow cells to shake for 30 min. Cover plate by plastic foil and store plate at −80° C. up to analysis. • 6. Thaw cell lysate at RT and transfer 10 ul lysate to assay plate (Optiplate-384). • 7. Add 5 ul acceptor beads into assay plate and incubation for 2 hours • 8. Add 5 ul donor beads and incubation for 2 hours • 9. Count the plate by EnSpire Multimode Plate Reader
Background: In Alpha technology, singlet oxygen from a donor bead excites a nearby acceptor bead.

Assay [2] concerns pAKT (p-Akt 1/2/3 (Ser473)) in MCF-7 cells. The assay can be described thus: AlphaLISA Ultra pAKT assay. It is filed as cell-based. The conditions noted are these: Homo sapiens, MCF7, 2 hours compound incubation. On the procedure: Example 156: AlphaLISA Ultra pAKT Assay
as §1, with “1.” for “1. Seed”, “for 20-24” for “for 20˜24”, “hour. 16,000-20,000” for “hour. 12,000˜16,000”, “38 j L” for “38 μL”

Take `Cc1cc(C)c(C(=O)N2CCN(c3cccc(F)c3S(=O)(=O)N=C(N(C)C)N(C)C)CC2)cc1NC1CCN(c2ccccc2C#N)CC1` [I-19, 2-{2-[4-(5-{[1-(2-cyanophenyl)piperidin-4-yl]amino}-2,4-dimethylbenzoyl)piperazin-1-yl]-6-fluorobenzenesulfonyl}-1,1,3,3-tetramethylguanidine]: the concentration for half-maximal inhibition (IC50) was 1 to 3 µM in assay [1] and greater than 10 µM in assay [2].

`Cc1cc(C)c(C(=O)N2CCN(c3ccccc3)[C@H](C(C)(C)O)C2)cc1NC1CCN(c2ccccc2C#N)CC1` [I-20]: the results for the IC50 in assay [1] and in assay [2] were 1 to 3 µM and greater than 10 µM, respectively.

For `Cc1cc(C)c(C(=O)N2CCN(c3ccccc3)[C@@H](C(C)(C)O)C2)cc1NC1CCN(c2ccccc2C#N)CC1` [I-21], the 50% inhibitory concentration (IC50) in assay [1] was 3 to 5 µM; in assay [2], greater than 10 µM.

`CCCN(c1cc(C(=O)N2CCN(c3ccccc3S(N)(=O)=O)CC2)c(C)cc1C)C1CCN(c2ccccc2C#N)CC1` [I-23, 2-(4-(5-((1-(2-Cyanophenyl)piperidin-4-yl)(propyl)amino)-2,4-dimethylbenzoyl)piperazin-1-yl)benzenesulfonamide]: the half-inhibitory concentration (IC50) was 1 to 3 µM in assay [1] and greater than 10 µM in assay [2].

In the case of `Cc1cc(C)c(N(CC(N)=O)C2CCN(c3ccccc3C#N)CC2)cc1C(=O)N1CCN(c2ccccc2S(N)(=O)=O)CC1` [I-27, 2-((1-(2-Cyanophenyl)piperidin-4-yl)(2,4-dimethyl-5-(4-(2-sulfamoylphenyl)piperazine-1-carbonyl)phenyl)amino)acetamide], the half-maximal inhibitory concentration (IC50) in assay [1] is 1 to 3 µM; in assay [2], greater than 10 µM.

On to `Cc1cc(C)c(C(=O)N2CCN(c3ncccc3C(N)=O)CC2)cc1NC1CCN(c2ccccc2C#N)CC1` [I-28], for which the IC50 is 1 to 3 µM in assay [1] and greater than 10 µM in assay [2].

Turning to `Cc1cc(C)c(C(=O)N2CCN(c3ccccc3C(N)=O)CC2)cc1NC1CCN(c2ccccc2C#N)CC1` [I-29], the results for the IC50 in assay [1] and in assay [2] were 0.01 to 1 µM and greater than 10 µM, respectively.

Regarding `Cc1cc(C)c(C(=O)N2CCN(c3ccccn3)[C@@H](CO)C2)cc1NC1CCN(c2ccccc2C#N)CC1` [I-30], the IC50 in assay [1] is 0.01 to 1 µM; in assay [2] it was greater than 10 µM.

With `Cc1cc(C)c(C(=O)N2CCN(c3ccccc3)C(C(N)=O)C2)cc1NC1CCN(c2ccccc2C#N)CC1` (stereo not shown) [I-31, 4-(5-{[1-(2-cyanophenyl)piperidin-4-yl]amino}-2,4-dimethylbenzoyl)-1-phenylpiperazine-2-carboxamide], the IC50 in assay [1] was 0.01 to 1 µM; in assay [2], greater than 10 µM.

As to `CNC(=O)C1CN(C(=O)c2cc(NC3CCN(c4ccccc4C#N)CC3)c(C)cc2C)CCN1c1ccccc1` (stereo not shown) [I-32, 4-(5-{[1-(2-cyanophenyl)piperidin-4-yl]amino}-2,4-dimethylbenzoyl)-N-methyl-1-phenylpiperazine-2-carboxamide], the half-maximal inhibitory concentration (IC50) in assay [1] is 1 to 3 µM; in assay [2], greater than 10 µM.

Take `Cc1cc(C)c(C(=O)N2CCN(c3ccccc3)[C@@H](C)C2)cc1NC1CCN(c2ccccc2C#N)CC1` [I-33, (S)-2-(4-(2,4-Dimethyl-5-(3-methyl-4-phenylpiperazine-1-carbonyl)phenylamino)piperidin-1-yl)benzonitrile]: the half-inhibitory concentration (IC50) in assay [1] was 5 to 10 µM; in assay [2] it was greater than 10 µM.

With `Cc1cc(C)c(C(=O)N2CCN(c3ccccn3)[C@@H](C)C2)cc1NC1CCN(c2ccccc2C#N)CC1` [I-34, 2-[4-[2,4-Dimethyl-5-[(3S)-3-methyl-4-(2-pyridyl)piperazine-1-carbonyl]anilino]-1-piperidyl]benzonitrile], the IC50 in assay [1] was 1 to 3 µM; in assay [2], greater than 10 µM.

Take `Cc1cccc(N2CCN(C(=O)c3cc(NC4CCN(c5ccccc5Cl)CC4)c(C)cc3C)CC2)n1` [I-35, (5-(1-(2-chlorophenyl)piperidin-4-ylamino)-2,4-dimethylphenyl) (4-(6-methylpyridin-2-yl)piperazin-1-yl) methanone]: the half-maximal inhibitory concentration (IC50) is 3 to 5 µM in assay [1] and greater than 10 µM in assay [2].

With `Cc1cc(C)c(C(=O)N2CCN(c3ccc(F)cn3)CC2)cc1NC1CCN(c2ccccc2Cl)CC1` [I-36, (5-(1-(2-Chlorophenyl)piperidin-4-ylamino)-2,4-dimethylphenyl)(4-(5-fluoropyridin-2-yl)piperazin-1-yl)methanone], the concentration for half-maximal inhibition (IC50) in assay [1] is 5 to 10 µM; in assay [2], greater than 10 µM.

Consider `Cc1cc(C)c(C(=O)N2CCN(c3ccccc3C#N)CC2)cc1NC1CCN(c2ccccc2Cl)CC1` [I-37, 2-(4-(5-(1-(2-Chlorophenyl)piperidin-4-ylamino)-2,4-dimethylbenzoyl)piperazin-1-yl)benzonitrile], for which the IC50 in assay [1] is 1 to 3 µM; in assay [2], greater than 10 µM.

With `Cc1cc(C)c(C(=O)N2CCN(c3ccccc3)C(C(=O)O)C2)cc1NC1CCN(c2ccccc2C#N)CC1` (stereo not shown) [I-39, 4-(5-{[1-(2-cyanophenyl)piperidin-4-yl]amino}-2,4-dimethylbenzoyl)-1-phenylpiperazine-2-carboxylic Acid], the half-inhibitory concentration (IC50) in assay [1] and in assay [2] was greater than 10 µM each time.

Take `Cc1cc(C)c(C(=O)N2CCN(c3ccccc3S(N)(=O)=O)CC2)c(C)c1NC1CCN(c2ccccc2C#N)CC1` [I-42]: the concentration for half-maximal inhibition (IC50) in assay [1] is 0.01 to 1 µM; in assay [2], greater than 10 µM.

Take `C=CCN(c1cc(C(=O)N2CCN(c3ccccc3S(N)(=O)=O)CC2)c(C)cc1C)C1CCN(c2ccccc2C#N)CC1` [I-46, 2-(4-(5-(Allyl(1-(2-cyanophenyl)piperidin-4-yl)amino)-2,4-dimethylbenzoyl)piperazin-1-yl)benzenesulfonamide]: the concentration for half-maximal inhibition (IC50) is 1 to 3 µM in assay [1] and greater than 10 µM in assay [2].

Take `Cc1cc(C)c(C(=O)N2CCN(c3ccccc3)[C@H](C)C2)cc1NC1CCN(c2ccccc2C#N)CC1` [I-47, (R)-2-(4-(2,4-Dimethyl-5-(3-methyl-4-phenylpiperazine-1-carbonyl)phenylamino)piperidin-1-yl)benzonitrile]: the half-inhibitory concentration (IC50) in assay [1] is 1 to 3 µM; in assay [2], greater than 10 µM.

As for `CCN(c1cc(C(=O)N2CCN(c3ccccc3S(N)(=O)=O)CC2)c(C)cc1C)C1CCN(c2ccccc2C#N)CC1` [I-51, 2-(4-(5-((1-(2-Cyanophenyl)piperidin-4-yl)(ethyl)amino)-2,4-dimethylbenzoyl)piperazin-1-yl)benzenesulfonamide], the IC50 in assay [1] was 1 to 3 µM; in assay [2], greater than 10 µM.

On to `Cc1cc(C)c(C(=O)N2CCN(c3ccccc3S(N)(=O)=O)CC2)cc1NC1CCN(c2ccccc2C#N)CC1(C)C` (stereo not shown) [I-52, 2-(4-(5-(1-(2-Cyanophenyl)-3,3-dimethylpiperidin-4-ylamino)-2,4-dimethylbenzoyl)piperazin-1-yl)benzenesulfonamide], for which the IC50 in assay [1] and in assay [2] was greater than 10 µM throughout.

`Cc1cc(C)c(C(=O)N2CCN(c3ccccc3C#N)[C@@H](CO)C2)cc1NC1CCN(c2ccccc2C#N)CC1` [I-53]: the concentration for half-maximal inhibition (IC50) is 0.01 to 1 µM in assay [1] and greater than 10 µM in assay [2].

For `Cc1cc(C)c(C(=O)N2CCN(c3ccccc3)[C@@H](CO)C2)cc1NC1CCN(c2ccccc2)CC1` [I-54], the results for the IC50 in assay [1] and in assay [2] were 1 to 3 µM and greater than 10 µM, respectively.

As for `Cc1cc(C)c(C(=O)N2CCN(c3ccccn3)CC2)cc1NC1CCN(c2ccccc2C#N)CC1` [I-55], the 50% inhibitory concentration (IC50) was 1 to 3 µM in assay [1] and greater than 10 µM in assay [2].

On to `Cc1cc(C)c(C(=O)N2CCN(c3ccccc3C#N)CC2)cc1NC1CCN(c2ccccc2)CC1` [I-56], for which the IC50 in assay [1] is 1 to 3 µM; in assay [2], greater than 10 µM.

For `Cc1cc(C)c(C(=O)N2CCN(c3ccccc3)CC2)cc1NC1CCN(c2ccccc2C#N)CC1` [I-57], the IC50 is 1 to 3 µM in assay [1] and greater than 10 µM in assay [2].
